Results taken from patent publication US6693081B2, “Bone stimulating factor” (Osteopharm Inc., priority 1995, dated 2004).
Entries after “also recorded” stand apart in the source; their conditions may differ.

Columns and labels:
[1] = test system: female Sprague-Dawley rats; test: Bone mineral apposition rate in rats, third set of experiments (protected polypeptides); type: in vivo, rat; conditions: 100 nmoles; for Group arithmetic mean of bone apposition rate: female Sprague-Dawley rats, N=3, control 1.256; for Bone stimulatory activity (in words): rats
Description: The polypeptide having the sequence identified as SEQ ID NO:12 has two sites susceptible to cleavage by the peptidase plasmin, between the lysine-threonine and the lysine-asparagine residues, respectively. In a third set of experiments, nine female Sprague-Dawley rats (average weight, about 300 gm) were divided into three groups of three. Each of the first group, the control group, was injected with 400 μl of buffer solution, 50 mM sodium acetate adjusted to pH 4.5 followed immediately by 200 μl of a 1M tetracycline hydrochloride solution. The rats of the second group were each injected with 400 μl of buffer containing 100 nmoles of a chemically synthesized polypeptide having the sequence identified as SEQ ID NO:17 followed immediately by 200 μl of a 1 M tetracycline hydrochloride solution. The rats of the third group were each injected with 400 μl of buffer containing 100 nmoles of a chemically synthesized polypeptide having the sequence identified as SEQ ID NO:18 followed immediately by 200 μl of a 1M tetracycline hydrochloride solution.
After about 48 hours, a second dose of tetracycline hydrochloride was administered to each rat. After about another 24 hours, rats were sacrificed by carbon dioxide narcosis.
The right femur of each animal was taken and treated, as described above, and measurements made as described above.

[2] = test system: female Sprague-Dawley rats; test: Dose dependence of bone mineral apposition rate in rats, fourth set of experiments; type: in vivo, rat; conditions: N=4, control 1.320
Description: In a fourth set of experiments, dose dependence of the measured bone mineral apposition rate on the amount of polypeptide having SEQ ID NO:18 was evaluated. Twenty-eight female Sprague-Dawley rats (average weight, about 300 gm) were divided into seven groups of four. The rats were treated as described in the previous set of experiments except that the amount of test polypeptide varied as follows: 25, 50, 100, 200, 400 and 800 nmoles.

male Sprague-Dawley rats [3] = test: Bone mineral apposition rate in rats, second set of experiments (NAP-2V subsequences); type: in vivo, rat; conditions: for Group arithmetic mean of bone apposition rate: about 25 nmol injected in right thigh, male Sprague-Dawley rats, N=3-4, control 1.08
Description: In a second set of experiments, twenty-four male Sprague-Dawley rats (Charles River Laboratory) were divided into six groups of four. Each of the first group, the control group, was injected in the right thigh with 200 μl of 0.1% acetic acid solution. The rats of the other groups were each injected in the right thigh with about 200 μl of a 0.1% acetic acid solution containing about 25 nmol of a chemically synthesized polypeptide as follows:
Immediately after injection of the polypeptide (control) solution, each rat was injected in the right gluteus maximus with 200 μl of a 1 M tetracycline hydrochloride (Sigma Chemical) solution. This dosage of tetracycline is about 16 mg per kg of animal body weight.
About 48 hours later, each rat was injected in the left gluteus maximus with the same dosage of tetracycline. Twenty-four hours later, the rats were sacrificed by CO2 narcosis and the right femur taken for bone mineral apposition rate determination. One rat died during the course of the experiments.
Immediately after dissection, a bone sample was fixed in 10% formaldehyde solution at pH 7.4. Later the same day, a 1:1 H2O-acetone solution was exchanged for the formaldehyde solution. This was exchanged twice the following day with acetone. This was exchanged the following day by a 1:1 acetone-Spurr's medium solution, which was exchanged later the same day with Spurr's medium. The following day each sample was embedded in a fresh change of Spurr's medium and cured at 60° C. for 24 hours, followed by curing at 80° C. for 24 hours.
Each cured block was cut into 400 μm thick sections using a Leitz saw microtome equipped with a diamond charged blade. The relatively thick sections were ground down between two ground glass plates pre-roughened with carborundum powder to a final thickness of about 10 μm, water being used as the grinding lubricant. The thin sections were dried and mounted unstained in Permount (Fisher).
Measurements were made using a Leitz scanning light microscope photometer MPV-CD magnifying the sections 16×, as described in international patent application No. PCT/CA94/00144.

Saos-2 = Saos-2 osteoblastic osteosarcoma cell line; U.S. Pat. No. 5,304,542; cited from earlier work
G-292 = G-292 osteoblastic osteosarcoma cell line; U.S. Pat. No. 5,304,542; cited from earlier work
male Sprague-Dawley rats [4] = test: Bone mineral apposition rate in rats, first experiments (NAP-2, NAP-2V); type: in vivo, rat; conditions: 25 nmol; for Bone stimulatory effect (in words): rats; for Group arithmetic mean of bone apposition rate: subcutaneous injection, male Sprague-Dawley rats, N=5, right femur lower metaphysis, control 0.99
Description: Experiments were conducted simultaneously on three groups of male Sprague-Dawley rats, there being five rats in each group. Each rat weighed between 250 and 350 g. Each rat of the first group was given, by subcutaneous injection into the left gluteus maximus region, 200 μl of a 1% aqueous acetic acid solution containing 25 nmol (about 191 μg) of NAP-2 (SEQ ID NO:1). Each rat of the second group was similarly given 200 μl of a 1% aqueous acetic acid solution containing 25 nmol (about 207 μg) of NAP-2V (SEQ ID NO:2). Each rat of the third group, the control group, was similarly given 200 μl of 1% acetic acid solution.
Immediately following administration of the test solution, 300 μl of an aqueous solution of tetracycline hydrochloride was administered intramuscularly into the right gluteus maximus, the concentration of tetracycline being sufficient to obtain a dosage of about 24 mg/kg of rat body weight. A second dose of tetracycline hydrochloride solution was administered about 48 hours after the first dose. The rats were sacrificed about 24 hours after administration of the second dose of tetracycline.
Sections of the lower metaphysis of the right femur were used for bone measuring the bone mineral apposition rate. Processing of the bone material for measurement has been described previously. See, for example, international patent application No. PCT/CA 94/00144 published under No. WO 94/20615 on Sep. 15, 1994.

With “SEQ ID NO: 18: Protected NAP-2V-(15-22): Xaa Thr Ser Gly Ile His Pro Xaa; Xaa1 N-acetyl threonine, Xaa8 lysinamide (Ac-TTSGIHPK-NH2; also: protecting groups)” the “Group arithmetic mean of bone apposition rate” value (from here on “Group arithmetic mean”) [1] was 2.406 μm/d, the “Bone stimulatory activity (in words)” value [1] was “greater bone stimulatory activity; also recorded: bond stimulatory activity” and the “Bone apposition rate, mean” value ([2]; 25 nmol) was 1.686 μm/day. The “Bone apposition rate, mean” value ([2]; 50 nmol) was 1.753 μm/day, the “Bone apposition rate, mean” value ([2]; 100 nmol) was 1.907 μm/day and the “Bone apposition rate, mean” value ([2]; 200 nmol) was 2.209 μm/day. The “Bone apposition rate, mean” value ([2]; 400 nmol) was 2.123 μm/day and the “Bone apposition rate, mean” value ([2]; 800 nmol) was 2.139 μm/day.

In the case of “NAP-2V-(13-26; gln^25→ glu^25) (IKTTSGIHPKNIES; OTHER INFORMATION: Description of Artificial Sequence: Chemically synthesized polypeptide) [SEQ ID NO: 12, Ile Lys Thr Thr Ser Gly Ile His Pro Lys Asn Ile Glu Ser]”, the “Group arithmetic mean” value (male Sprague-Dawley rats [3]) is reported as 1.70 μm per day and the “Effect on observed bone (mineral) apposition rate (in words)” value (“Effect on observed bone” below) (male Sprague-Dawley rats [3]; about 25 nmol, rats; gln^25→glu^25)) is reported as “stimulate bone growth; also recorded: greater activity; also recorded: increase the observed bone apposition rate”.

With “NAP-2V-(11-26) (MCIKTTSQIHPKNIQS; OTHER INFORMATION: Description of Artificial Sequence: Chemically synthesized polypeptide) [SEQ ID NO: 14, Met Cys Ile Lys Thr Thr Ser Gln Ile His Pro Lys Asn Ile Gln Ser]” the “Group arithmetic mean” value (male Sprague-Dawley rats [3]) was 1.07 μm per day, the “Effect on observed bone” value (male Sprague-Dawley rats [3]; about 25 nmol, rats, listed as 14) was “do not appear to enhance bone growth” and the “Effect on observed bone” value (male Sprague-Dawley rats [3]; about 25 nmol, rats, listed as NAP-2V-(11-26)) was “no effect”.

For “NAP-2V-(1-26) (DSDLYAELRCMCIKTTSGIHPKNIQS; OTHER INFORMATION: Description of Artificial Sequence: Chemically synthesized polypeptide) [SEQ ID NO: 11]”, the “Group arithmetic mean” value (male Sprague-Dawley rats [3]) was 1.47 μm per day and the “Effect on observed bone” value (male Sprague-Dawley rats [3]; about 25 nmol, rats) was “stimulate bone growth; also recorded: increase the observed bone apposition rate”.

For “NAP-2V-(12-26) (CIKTTSGIHPKNIQS; OTHER INFORMATION: Description of Artificial Sequence: Chemically synthesized polypeptide) [SEQ ID NO: 15, Cys Ile Lys Thr Thr Ser Gly Ile His Pro Lys Asn Ile Gln Ser]”, the “Group arithmetic mean” value (male Sprague-Dawley rats [3]) was 1.04 μm per day, the “Effect on observed bone” value (male Sprague-Dawley rats [3]; about 25 nmol, rats, listed as 15) was “do not appear to enhance bone growth” and the “Effect on observed bone” value (male Sprague-Dawley rats [3]; about 25 nmol, rats, listed as NAP-2V-(12-26)) was “no effect”.

With “SEQ ID NO: 17: Protected NAP-2V-(13-26; gln^25→glu^25): Xaa Lys Thr Thr Ser Gly Ile His Pro Lys Asn Ile Glu Xaa; N-acetyl isoleucine, serinamide (Ac-IKTTSGIHPKNIES-NH2; also: protecting groups)” the “Group arithmetic mean” value [1] was 1.859 μm/d and the “Bone stimulatory activity (in words)” value [1] was “bond stimulatory activity”.

With “NAP-2V-(10-26) (CMCIKTTSGIHPKNIQS; OTHER INFORMATION: Description of Artificial Sequence: Chemically synthesized polypeptide) [SEQ ID NO: 13, Cys Met Cys Ile Lys Thr Thr Ser Gly Ile His Pro Lys Asn Ile Gln Ser]” the “Group arithmetic mean” value (male Sprague-Dawley rats [3]) was 1.18 μm per day and the “Effect on observed bone” value (male Sprague-Dawley rats [3]; about 25 nmol, rats) was “small increase”.

B1: Platelet factor 4 (protein)
chain: EAEEDGDLQCLCVKTTSQVRPRHITSLEVIKAQPHCPTAQLIATLKNGRKICLDLEAPLYKKIIKKLLES
modifications: OTHER INFORMATION: Description of Artificial Sequence: Chemically synthesized polypeptide
notes: seventy amino acid polypeptide
For B1, the “Effect on cell proliferation (in words)” value (Saos-2) is listed as “inhibit proliferation” and the “Effect on cell proliferation (in words)” value (G-292) is listed as “inhibit proliferation”.

B2: NAP-2V (peptide)
chain: DSDLYAELRCMCIKTTSGIHPKNIQSLEVIGKGTHCNQVEVIATLKDGRKICLDPDAPRIKKIVQKKLAGDESAD
modifications: OTHER INFORMATION: Description of Artificial Sequence: Chemically synthesized polypeptide
notes: variant of NAP-2, 75 amino acids, chemically synthesized polypeptide
With B2 the “Bone stimulatory effect (in words)” value (male Sprague-Dawley rats [4]) was “bone stimulatory effects”, the “Bone stimulatory effect (in words)” value (male Sprague-Dawley rats [4]; listed as SEQ ID NO:2) was “stimulate bone growth” and the “Group arithmetic mean” value (male Sprague-Dawley rats [4]) was 1.28 μm/d.

B3: NAP-2 (peptide)
chain: AELRCMCIKTTSGIHPKNIQSLEVIGKGTHCNQVEVIATLKDGRKICLDPDAPRIKKIVQKKLAGDESAD
modifications: OTHER INFORMATION: Description of Artificial Sequence: Chemically synthesized polypeptide
With B3 the “Bone stimulatory effect (in words)” value (male Sprague-Dawley rats [4]) was “bone stimulatory effects”, the “Bone stimulatory effect (in words)” value (male Sprague-Dawley rats [4]; listed as SEQ ID NO:1) was “stimulate bone growth” and the “Group arithmetic mean” value (male Sprague-Dawley rats [4]) was 1.23 μm/d.
